Structures are written as SMILES. Several values for one entry are separate records, joined by “and”; a condition that tells them apart may be missing. Equal entries are not always repeated. Where two headings read alike, the source gives them in different places.

One may read the pest or weed control as the degree to which the test organism was suppressed or injured, in per cent. A higher pest or weed control goes with strong suppression. One may read the inhibition of growth as the drop in the measured response relative to a control, in per cent. Low readings indicate a weak effect, high ones a strong effect. Broadly, the melting point is the temperature of the solid-liquid transition.

Data set [1] concerns Puccinia recondita f. sp. tritici. In words: Puccinia recondita f. sp. tritici / wheat / leaf disc preventative (brown rust). The class given is in vivo. The following applies: foliar, vs untreated control. The procedure: (§1) Leaf disks or leaf segments of various plant species are cut from plants grown in a greenhouse. The cut leaf disks or segments are placed in multiwell plates (24-well format) onto water agar. The leaf disks are sprayed with a test solution before (preventative) or after (curative) inoculation. Compounds to be tested are prepared as DMSO solutions (max. 10 mg/mL) which are diluted to the appropriate concentration with 0.025% Tween20 just before spraying. The inoculated leaf disks or segments are incubated under defined conditions (temperature, relative humidity, light, etc.) according to the respective test system. A single evaluation of disease level is carried out 3 to 14 days after inoculation, depending on the pathosystem. Percent disease control relative to the untreated check leaf disks or segments is then calculated.
Wheat leaf segments cv. Kanzler are placed on agar in multiwell plates (24-well format) and sprayed with the formulated test compound diluted in water. The leaf disks are inoculated with a spore suspension of the fungus 1 day after application. The inoculated leaf segments are incubated at 19° C. and 75% rh under a light regime of 12 h light/12 h darkness in a climate cabinet and the activity of a compound is assessed as percent disease control compared to untreated when an appropriate level of disease damage appears in untreated check leaf segments (7-9 days after application).

Data set [2] has as its system Glomerella lagenarium (Colletotrichum lagenarium). Description: Glomerella lagenarium (Colletotrichum lagenarium) liquid culture / cucumber / preventative (anthracnose). It is filed as cell-based. The following applies: Colletotrichum orbiculare, vs untreated control. The procedure: Mycelia fragments or conidia suspensions of a fungus prepared either freshly from liquid cultures of the fungus or from cryogenic storage, are directly mixed into nutrient broth. DMSO solutions of the test compound (max. 10 mg/mL) are diluted with 0.025% Tween20 by a factor of 50 and 10 μl of this solution is pipetted into a microtiter plate (96-well format). The nutrient broth containing the fungal spores/mycelia fragments is then added to give an end concentration of the tested compound. The test plates are incubated in the dark at 24° C. and 96% relative humidity. The inhibition of fungal growth is determined photometrically after 2 to 7 days, depending on the pathosystem, and percent antifungal activity relative to the untreated check is calculated.
Conidia of the fungus from cryogenic storage are directly mixed into nutrient broth (PDB potato dextrose broth). After placing a (DMSO) solution of test compound into a microtiter plate (96-well format), the nutrient broth containing the fungal spores is added.

In data set [3] the test system is Phakopsora pachyrhizi. Description: Phakopsora pachyrhizi / soybean / leaf disc preventative (Asian soybean rust). The class given is in vivo. The following applies: foliar, 288 h, vs untreated control. How it is done:
as §1
Soybean leaf disks are placed on agar in multiwell plates (24-well format) and sprayed with test solutions. After drying, the leaf disks are inoculated with a spore suspension of the fungus. After appropriate incubation the activity of a compound is assessed approx.12 dpi (days after inoculation) as preventive fungicidal activity.

For data set [4], the system named is Glomerella lagenarium syn. Colletotrichum lagenarium. In words: Example B1: mixtures, preventative activity against Glomerella lagenarium syn. Colletotrichum lagenarium, liquid culture. It is filed as cell-based. From the text:
(§2) This occurs whenever the action of an active ingredient combination is greater than the sum of the actions of the individual components. The action to be expected E for a given active ingredient combination obeys the so-called COLBY formula and can be calculated as follows (COLBY, S. R. “Calculating synergistic and antagonistic responses of herbicide combination”. Weeds, Vol. 15, pages 20-22; 1967):
(§3) If the action actually observed (O) is greater than the expected action (E), then the action of the combination is super-additive, i.e. there is a synergistic effect. In mathematical terms, synergism corresponds to a positive value for the difference of (O-E). In the case of purely complementary addition of activities (expected activity), said difference (O-E) is zero. A negative value of said difference (O-E) signals a loss of activity compared to the expected activity.
(§4) Conidia of the fungus from cryogenic storage were directly mixed into nutrient broth (PDB potato dextrose broth). A DMSO solution of the test compounds was placed into a microtiter plate (96-well format) and the nutrient broth containing the fungal spores was added to it.
(§5) Fungicidal activity was evaluated on a 100-0 scale (100=no disease growth; 0=well completely covered by mycelium).

For data set [5], the system named is Mycosphaerella arachidis syn. Cercospora arachidicola. In words: Example B4: mixtures, preventative activity against Mycosphaerella arachidis syn. Cercospora arachidicola (brown leaf spot of peanut), liquid culture. The class given is cell-based.
Source text: as §2, §3, §4
Cercospora arachidicola (Brown leaf spot of peanut). Fungicidal activity was evaluated on a 100-0 scale (100=no disease growth; 0=well completely covered by mycelium).

Data set [6] has as its system Septoria glycines. Description: Example B2: mixtures, preventative activity against Septoria glycines (brown spot), liquid culture. It is filed as cell-based. The note with it: for Activity (%) B: component B alone.
Source text: as §2, §3
Conidia of the fungus harvested from a fresh culture grown on artificial media, were directly mixed into nutrient broth (PDB potato dextrose broth). A DMSO solution of the test compounds was placed into a microtiter plate (96-well format) and the nutrient broth containing the fungal spores was added to it.
as §5

Data set [7] has as its system Septoria tritici. In words: Example B3: mixtures, preventative activity against Septoria tritici (leaf blotch), liquid culture. It is filed as cell-based.
Source text: as §2, §3, §4, §5

For data set [8], the system named is Phakopsora pachyrhizi. In words: Example B5: preventative activity against Phakopsora pachyrhizi (soybean rust), whole soybean plants sprayed, leaf disks inoculated. The following applies: applied alone. The class given is in vivo. How it is done:
Whole soybean plants are treated with the recited active ingredients 4 weeks after planting. 1 day after spraying leaf disks are cut from the first trifoliate leaf. Five repetitions at each rate are conducted. The leaf disks are inoculated with Phakopsora pachyrhizi (Asian soybean rust) one day after treatment.
Evaluation of the leaf disks is conducted 11 to 14 days after inoculation and the activity is derived from the relation of the treated vs untreated, infested check (100=no disease, no damage to the leaf, 0=high infestation, leaf damaged heavily). The rates of the active ingredients used are given in the tables as g active ingredient (a.i.)/ha.

The subject of data set [9] is Puccinia recondita f. sp. tritici. In words: Puccinia recondita f. sp. tritici / wheat / leaf disc curative (brown rust). The class given is in vivo. The note with it: foliar, vs untreated control. The procedure:
Leaf disks or leaf segments of various plant species are cut from plants grown in a greenhouse. The cut leaf disks or segments are placed in multiwell plates (24-well format) onto water agar. The leaf disks are sprayed with a test solution before (preventative) or after (curative) inoculation. […] The inoculated leaf disks or segments are incubated under defined conditions (temperature, relative humidity, light, etc.) according to the respective test system. […] Percent disease control relative to the untreated check leaf disks or segments is then calculated. Wheat leaf segments cv. Kanzler are placed on agar in multiwell plates (24-well format). The leaf segments are inoculated with a spore suspension of the fungus. […] The formulated test compound diluted in water is applied 1 day after inoculation.

Where [10] appears, read: Phakopsora pachyrhizi, foliar, read-out: Observed Activity (%) (% of untreated) against Phakopsora pachyrhizi.
Setting [11] is: Phakopsora pachyrhizi, foliar, 4.5 g/ha, read-out: Observed Activity (%) (% of untreated) against Phakopsora pachyrhizi.

The compound `CCC(C)c1ccn(-c2ccc(C)c(O/C(=C\OC)C(=O)OC)c2)n1` (stereo not shown) [X.02, methyl (Z)-3-methoxy-2-[2-methyl-5-(3-sec-butylpyrazol-1-yl)phenoxy]prop-2-enoate] came in with a melting point of 110 to 113 °C. The pest or weed control at 200 ppm in [1] is ≥ 80%. Also, in [2], the inhibition of growth at 6.7 ppm was ≥ 80%. In data set [3], the pest or weed control at 67 ppm was ≥ 80%.
As for `Cc1ccc(C(=O)OCc2ccc(Oc3ccccc3)cc2)c(N)n1` [aminopyrifen], the “Activity (%) B” value came out at 20% in data set [4] (component B alone, 0.1 ppm); 50% in data set [4] (component B alone, 0.3 ppm); 90% in data set [5] (component B alone, 0.1 ppm); 100% in data set [5] (component B alone, 0.3 ppm); 0% in [6] (0.1 ppm); 0% in data set [6] (0.1 ppm, 100-0 scale). The “Activity (%) B” value in data set [6] (0.3 ppm, 100-0 scale) turned out to be 20%.
As for `CCCc1cnn(-c2ccc(C)c(O/C(=C\OC)C(=O)OC)c2)n1` [X.09, methyl (Z)-3-methoxy-2-[2-methyl-5-(4-propyltriazol-2-yl)phenoxy]prop-2-enoate], the pest or weed control at 200 ppm in data set [1] and in data set [9] was ≥ 80% throughout. In addition, the inhibition at 0.0025 ppm was found to be 50% in data set [5] (Mycosphaerella arachidis, component A alone, 0.0025 ppm); 70% in [7] (Zymoseptoria tritici, 72 h, component A alone, 0.0025 ppm); 70% in [6] (Septoria glycines, component A alone, 0.0025 ppm). The inhibition at 0.005 ppm in data set [5] (Mycosphaerella arachidis, component A alone, 0.005 ppm) was found to be 90%; in [7] (Zymoseptoria tritici, 72 h, component A alone, 0.005 ppm), 90%; in data set [6] (Septoria glycines, component A alone, 0.005 ppm) it was 90%. The inhibition of growth at 6.7 ppm in data set [2] was ≥ 80%. Moreover, in data set [3], the pest or weed control at 67 ppm was ≥ 80%. Moreover, in [8] (setting [10]), the inhibition at 2.25 g/ha turned out to be 34%. The inhibition at 4.5 g/ha in data set [8] (Phakopsora pachyrhizi, foliar, 4.5 g/ha, read-out: Observed Activity (% of untreated) against Phakopsora pachyrhizi) was 94%; in [8] (setting [11]), 95%. The inhibition at 9 g/ha in data set [8] (Phakopsora pachyrhizi, foliar, 9 g/ha, read-out: Observed Activity (% of untreated) against Phakopsora pachyrhizi) came to 97%. Besides, the inhibition at 18 g/ha in [8] (Phakopsora pachyrhizi, foliar, 18 g/ha, read-out: Observed Activity (% of untreated) against Phakopsora pachyrhizi) is 97%. Moreover, the “Observed Activity (% of untreated) against Phakopsora pachyrhizi” value in [8] (4.5 g/ha) is 93% and 81% and 82%.
Turning to `N#Cc1c(Cl)c(Cl)c(Cl)c(C#N)c1Cl` [chlorothalonil, reference compound], the inhibition at 0.1 ppm in data set [4] (Colletotrichum orbiculare, component B alone, 0.1 ppm, read-out: Activity (%) B) turned out to be 0%; in [5] (Mycosphaerella arachidis, component B alone, 0.1 ppm), 0%; in [7] (Zymoseptoria tritici, 72 h, component B alone, 72 hrs, 100=no disease growth, read-out: Activity (%) B), 20%. For the same compound, the inhibition at 0.3 ppm is 20% in data set [4] (Colletotrichum orbiculare, component B alone, 0.3 ppm, read-out: Activity (%) B); 90% in data set [5] (Mycosphaerella arachidis, component B alone, 0.3 ppm); 70% in data set [7] (Zymoseptoria tritici, 72 h, component B alone, 72 hrs, read-out: Activity (%) B); 70% in [7] (Zymoseptoria tritici, component B alone, 100-0 scale, read-out: Activity (%) B).
Take `CO/C=C(\Oc1cc(-n2ccc(C(F)(F)F)n2)ccc1C)C(=O)OC` [X.08, methyl (Z)-3-methoxy-2-[2-methyl-5-[3-(trifluoromethyl)pyrazol-1-yl]phenoxy]prop-2-enoate]: the melting point is 154 to 156 °C. In data set [1], the pest or weed control at 200 ppm is ≥ 80%. In data set [4] (Colletotrichum orbiculare, component A alone, 0.03 ppm), the inhibition at 0.03 ppm was 0%. Besides, the inhibition at 0.1 ppm in data set [4] (Colletotrichum orbiculare, component A alone, 0.1 ppm, read-out: Activity (%) A) came to 0%. Moreover, the inhibition at 0.00625 ppm in data set [5] (Mycosphaerella arachidis, component A alone, 0.00625 ppm) was found to be 0%. In addition, the inhibition at 0.025 ppm in [5] (Mycosphaerella arachidis, component A alone, 0.025 ppm) is 70%. The inhibition at 0.03 ppm in data set [5] (Mycosphaerella arachidis, component A alone, 0.03 ppm) turned out to be 70%. Moreover, the inhibition of growth at 6.7 ppm in data set [2] was ≥ 80%. Also, the inhibition at 0.00625 ppm in [7] (Zymoseptoria tritici, component A alone, 0.00625 ppm, 100-0 scale) worked out at 0%. The inhibition at 0.025 ppm in [7] (Zymoseptoria tritici, component A alone, 0.025 ppm, 100-0 scale) amounted to 70%. The inhibition at 0.03 ppm in data set [7] (Zymoseptoria tritici, component A alone, 0.03 ppm, 100-0 scale, read-out: Activity (%) A) was 50%. In data set [7] (Zymoseptoria tritici, component A alone, 100-0 scale, read-out: Activity (%) A), the inhibition at 0.1 ppm amounted to 70%. The “Activity (%) A” value in data set [7] (component A alone, 0.025 ppm, 100-0 scale) amounted to 90%. In addition, in data set [6] (Septoria glycines, component A alone, 0.00625 ppm), the inhibition at 0.00625 ppm was 0%. The inhibition at 0.025 ppm in [6] (Septoria glycines, component A alone, 0.025 ppm) was 70%. In addition, the inhibition at 0.03 ppm in data set [6] (Septoria glycines, component A alone, 0.03 ppm, read-out: Activity (%) A) turned out to be 70%. Besides, the inhibition at 0.05 ppm in data set [6] (Septoria glycines, component A alone, 0.05 ppm) was determined as 90%. Also, the inhibition at 0.1 ppm in [6] (Septoria glycines, component A alone, 0.1 ppm, read-out: Activity (%) A) stood at 70%. Moreover, the pest or weed control at 67 ppm in data set [3] was ≥ 80%. Besides, the inhibition at 2.25 g/ha in data set [8] (setting [10]) was 1%. Further, the inhibition at 4.5 g/ha in data set [8] (setting [11]) is 10%. Moreover, in [8] (18 g/ha), the “Observed Activity (% of untreated) against Phakopsora pachyrhizi” value is 38% and 77%.
On to `CO/C=C(\Oc1cc(-n2ncc(C(C)C)n2)ccc1C)C(=O)OC` [X.12, methyl (Z)-2-[5-(4-isopropyltriazol-2-yl)-2-methyl-phenoxy]-3-methoxy-prop-2-enoate], for which the pest or weed control at 200 ppm in data set [1] and in data set [9] was ≥ 80% throughout. In addition, in data set [2], the inhibition of growth at 6.7 ppm was ≥ 80%. The pest or weed control at 67 ppm in data set [3] is ≥ 80%.
As for `CO/C=C(\Oc1cc(-n2ncc(C3CC3)n2)ccc1C)C(=O)OC` [X.11, methyl (Z)-2-[5-(4-cyclopropyltriazol-2-yl)-2-methyl-phenoxy]-3-methoxy-prop-2-enoate], the pest or weed control at 200 ppm in data set [1] and in data set [9] was ≥ 80% each time. Also, in data set [2], the inhibition of growth at 6.7 ppm was ≥ 80%. Further, the pest or weed control at 67 ppm in [3] is ≥ 80%.
